For test [1], the target named is T1, ErbB1 (Homo sapiens, UniProt P00533).
T1 construct: Lysates were prepared, from which ErbB1 proteins were collected as immune complexes; endogenous in cells; host or cells: MDA-MB-468
Description: Tyrosine phosphorylation of ErbB1 (EGF-R): immunoprecipitation and anti-phosphotyrosine immunoblot. It counts as cell-based. Particulars: MDA-MB-468 cells.
Description: Immune complexes were then allowed to bind to protein A-Sepharose beads for 1 hour at 4° C. and collected by centrifugation. Immunoprecipitates were washed three times in 100 mM Tris-HC1 pH 7.5, 100 nM NaCl, 1 mM EDTA, 0.1 mM PMSF, 0.5% NP-40. Thereafter, samples were taken up in sodium dodecyl sulphate (SDS) loading buffer and boiled for 5 min.

Test [2] concerns the target T2, JAK2 (Homo sapiens, UniProt O60674).
T2 construct: endogenous in cells; host or cells: BR293
Description: Serum-induced JAK2 tyrosine phosphorylation (immunoblot). It is filed as cell-based. Particulars: preliminary data, unpublished. Here is the method:
For immunoprecipitation and immunoblotting experiments, cells were grown to confluence in 10 cm dishes and maintained in full medium or starved in serum-free medium overnight before the application of appropriate stimuli. Lysates were prepared in TBSN buffer (50 mM Tris-HCl pH7.5, 150 mM NaCl, 1 mM EDTA, 1% NP-40) supplemented with protease inhibitors (1 mM Na3 VO4, 10 mM Na4P2O7, 10 mM NaF, 5 mM EGTA, 10 mM Benzamidine, 0.2 mM PMSF and 1 μg/ml each of leupeptin, aprotinin, pepstatin). Lysates were cleared by centrifugation at 16,000×g for 10 minutes and used directly for immunoprecipitations or stored at −20° C. for further use.
Equal amounts of lysates were incubated with the appropriate antibody for 2 hours at 4° C.
Immune complexes were then allowed to bind to protein A-Sepharose beads for 1 hour at 4° C. and collected by centrifugation. Immunoprecipitates were washed three times in 100 mM Tris-HC1 pH 7.5, […], 1 mM EDTA, 0.1 mM PMSF, 0.5% NP-40. Thereafter, samples were taken up in sodium dodecyl sulphate (SDS) loading buffer and boiled for 5 min.
Samples were separated by electrophoresis through 6% polyacrylamide-SDS gels. Proteins were then transferred to polyvinylidene difluoride (PVDF) membranes with a semi-dry electroblotting apparatus. […]
(In general: A western blot detects proteins with antibodies after separation by electrophoresis.)

In test [3] the test system is autocrine factor release from BR293 cells. The test is described as follows: Autocrine factor release: CM from pre-treated serum-stimulated cells tested for STAT3 phosphorylation. Particulars: 100 μM (FIG. 18d). It is filed as cell-based, human. As for the experimental part: OdDHL blocks the autocrine release of mitogens from BC cells (a) Equal numbers of BR293 cells were cultured in MEM alone, serum-free MEM conditioned by serum-stimulated BR293 cells for 2 hours, or the same supplemented with 5% FCS, as indicated. After 24 hours [^3H]-thymidine was added to the medium. After a further 18 hours, cells were harvested and analysed for incorporation of ^3H. Error bars denote SD (n=4). (b) BR293 cells were serum-starved (lane 1) or starved and stimulated with 10% FCS for 2 hours directly (lane 2) or after pretreatment with α-amanitin (1004/ml) for 2.5 hours (lane 3) or actinomycin D ([…]) for 10 min (lane 4). […] (c) BR293 cells were serum-starved (lane 1) or starved and stimulated with 10% FCS alone for 2 hours (lane 2), with serum-free CM alone for 15 min (lane 5) or in the presence of increasing 100 μM AG490 (lanes 3 and 6) or 100 μM OdDHL (lanes 4 and 7). Cell lysates were prepared and analysed by Western blotting as described in the legend to FIG. 1a. (d) BR293 cells were stimulated with 10% FCS in the presence of 100 μM OHHL (lane 1) or OdDHL (lane 2). After 2 hours the cells were washed and incubated for a further 2 hours in serum-free MEM. […] Lysates were prepared from all the cells and analysed by Western blotting as described in the legend to FIG. 1a.

Test [4] concerns COS1 cells. The test is described as follows: Cell proliferation assay (cell counting). It counts as cell-based, simian. Particulars: cells expressing low levels of STAT proteins; 48 hours. Here is the method: Equal numbers of BR293, MCF-10F, MCF-7, MDA-MB-468, HKEK293 and COS1 cells were seeded in the appropriate growth medium into 10 cm dishes. Cells were allowed to grow in the presence of various concentrations of OdDHL or OHHL for 24 or 48 hours. For the 48-hour time points, fresh medium containing the appropriate inhibitor was applied to the cells after 24 hours. Controls were allowed to grow for 48 hours in the absence of inhibitor. Thereafter, all the cells were washed twice with ice cold PBS, harvested and counted under a phase-contrast microscope. Values are expressed as averages ±S.D. (n=3).

The subject of test [5] is p46/p54 JNK/SAPK. Description: JNK/SAPK phosphorylation in anisomycin-treated cells (Western blotting). Particulars: BR293 cells treated with anisomycin. It counts as cell-based, human. Here is the method:
ERKs are unaffected by OdDHL (a) BR293 cells were serum-starved (lane 1) or starved and stimulated with TPA for 30 min alone (lane 2) or in the presence of increasing concentrations of OdDHL (lanes 3-6) or 100 μM OHHL (lane 7). Cell lysates were prepared and analysed by Western blotting for ERK phosphorylation with an antibody specific for phospho-ERK½ (upper panel) and for ERK content with an antibody against ERKs (lower panel). (b) BR293 cells were serum-starved (lane 1) or starved and stimulated with Anisomycin for 30 min alone (lane 2) or in the presence of increasing concentrations of OdDHL (lanes 3-6) or 100 μM OHHL (lane 7). Cell lysates were prepared and analysed by Western blotting for JNK/SAPK phosphorylation with an antibody specific for phospho-JNKs (upper panel) and for SAPK/JNK content with an antibody against JNKs (lower panel). (c) BR293 cells were treated as described in (b) and lysates were analysed by Western blotting for p38^MAPK phosphorylation with an antibody specific for phospho-p38 (upper panel) and for p38 content with an antibody against p38 (lower panel).

The test system of test [6] is STAT3. The test is described as follows: EGF-induced STAT3 phosphorylation (Western blotting, Y705). It counts as cell-based, human. The conditions noted are these: MDA-MB-468 cells; co-treatment 100 μM. Here is the method: EGF-R was immunoprecipitated from cell lysates and analysed by Western blotting tyrosine phosphorylation with an anti phosphotyrosine antibody (upper panel, top) and EGF-R content with an anti-EGF-R antibody (lower panel, top). Cell lysates were analysed in parallel for STAT3 phosphorylation with an antibody specific for STAT3 phosphorylated on Y705 (upper panel, bottom) and for STAT3 content with an antibody for STAT3 (lower panel, bottom). […] The inclusion of an anti-STAT3 antibody in duplicate binding reactions (even lanes) identifies STAT3-containing heterodimers (3:1), as indicated to the right of the panel. (c) COS-1 cells were transfected with an expression vector for STAT3, a STAT3-responsive luciferase reporter (SIE2-luc) and a control gene for β-galactosidase. […] After 6 hours cells were harvsted and reporter gene expression analysed. Results are normalised against β-galactosidase values and expressed as averages +/−SD (n=3).

“Also recorded” adds a separate entry of the source.

The values below come from patent US20040259942A1, “Modulation of stat activity” (priority 2001, published 2004).

T1 sequence (P00533 25-1210): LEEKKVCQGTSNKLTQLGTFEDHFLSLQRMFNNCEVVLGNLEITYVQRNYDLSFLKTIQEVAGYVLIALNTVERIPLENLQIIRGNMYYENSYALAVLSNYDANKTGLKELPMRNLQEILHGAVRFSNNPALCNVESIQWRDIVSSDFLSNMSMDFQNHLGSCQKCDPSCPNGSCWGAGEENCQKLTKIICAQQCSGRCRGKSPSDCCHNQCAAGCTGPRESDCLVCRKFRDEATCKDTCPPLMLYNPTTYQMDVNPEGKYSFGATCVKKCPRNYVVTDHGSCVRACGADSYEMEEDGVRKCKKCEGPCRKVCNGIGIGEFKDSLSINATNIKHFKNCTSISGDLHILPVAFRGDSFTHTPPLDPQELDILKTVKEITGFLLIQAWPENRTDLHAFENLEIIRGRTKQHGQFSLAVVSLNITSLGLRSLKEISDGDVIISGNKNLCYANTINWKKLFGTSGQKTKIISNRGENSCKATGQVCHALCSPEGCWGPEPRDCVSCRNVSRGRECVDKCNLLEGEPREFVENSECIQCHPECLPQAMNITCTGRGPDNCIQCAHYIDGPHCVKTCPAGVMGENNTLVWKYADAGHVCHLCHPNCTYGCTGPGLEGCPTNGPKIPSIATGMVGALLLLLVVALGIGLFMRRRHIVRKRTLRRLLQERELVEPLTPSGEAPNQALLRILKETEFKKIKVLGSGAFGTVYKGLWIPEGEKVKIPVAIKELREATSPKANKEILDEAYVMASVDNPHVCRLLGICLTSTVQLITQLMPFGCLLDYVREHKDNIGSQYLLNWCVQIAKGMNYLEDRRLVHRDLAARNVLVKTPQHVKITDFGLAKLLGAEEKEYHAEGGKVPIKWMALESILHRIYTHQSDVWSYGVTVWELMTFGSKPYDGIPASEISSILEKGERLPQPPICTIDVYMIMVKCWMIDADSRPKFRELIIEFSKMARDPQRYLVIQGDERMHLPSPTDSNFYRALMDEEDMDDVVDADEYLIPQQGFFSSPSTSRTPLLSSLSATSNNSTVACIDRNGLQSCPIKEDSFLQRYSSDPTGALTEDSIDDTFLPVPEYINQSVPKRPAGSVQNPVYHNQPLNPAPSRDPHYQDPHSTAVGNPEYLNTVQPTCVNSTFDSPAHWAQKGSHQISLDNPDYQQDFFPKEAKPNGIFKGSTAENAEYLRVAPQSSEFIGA
T2 sequence (O60674 whole entry): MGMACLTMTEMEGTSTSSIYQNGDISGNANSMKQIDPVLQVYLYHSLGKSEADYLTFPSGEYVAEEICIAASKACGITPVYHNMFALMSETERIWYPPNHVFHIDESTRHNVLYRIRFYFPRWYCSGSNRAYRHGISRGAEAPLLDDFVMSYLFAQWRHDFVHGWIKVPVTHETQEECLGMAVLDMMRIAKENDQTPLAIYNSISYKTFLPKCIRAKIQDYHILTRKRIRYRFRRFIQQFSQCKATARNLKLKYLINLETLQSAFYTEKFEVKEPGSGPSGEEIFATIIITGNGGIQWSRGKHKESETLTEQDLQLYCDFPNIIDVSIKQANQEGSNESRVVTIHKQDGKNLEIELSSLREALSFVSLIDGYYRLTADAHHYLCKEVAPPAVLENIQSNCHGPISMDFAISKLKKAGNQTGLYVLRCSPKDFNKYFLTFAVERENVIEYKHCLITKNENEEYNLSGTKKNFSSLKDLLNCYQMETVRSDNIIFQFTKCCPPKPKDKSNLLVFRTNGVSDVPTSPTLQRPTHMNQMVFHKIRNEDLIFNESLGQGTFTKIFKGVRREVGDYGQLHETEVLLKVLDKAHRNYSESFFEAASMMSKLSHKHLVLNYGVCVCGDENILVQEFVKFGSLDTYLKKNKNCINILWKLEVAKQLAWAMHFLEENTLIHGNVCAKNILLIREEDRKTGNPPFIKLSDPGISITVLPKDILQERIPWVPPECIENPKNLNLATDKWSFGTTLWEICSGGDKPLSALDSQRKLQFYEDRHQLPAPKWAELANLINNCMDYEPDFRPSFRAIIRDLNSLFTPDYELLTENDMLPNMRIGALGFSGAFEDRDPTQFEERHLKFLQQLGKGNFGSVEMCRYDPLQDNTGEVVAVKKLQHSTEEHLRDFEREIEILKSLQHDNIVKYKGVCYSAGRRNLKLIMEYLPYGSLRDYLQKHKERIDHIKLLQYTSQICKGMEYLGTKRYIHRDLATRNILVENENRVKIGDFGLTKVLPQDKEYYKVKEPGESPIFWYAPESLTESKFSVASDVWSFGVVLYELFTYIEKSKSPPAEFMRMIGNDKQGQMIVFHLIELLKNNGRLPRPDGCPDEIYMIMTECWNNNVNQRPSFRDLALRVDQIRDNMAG

Regarding `CCCCCCCCCC(=O)CC(=O)N[C@H]1CCOC1=O` [OdDHL, N-(3-oxo-dodecanoyl)-L-homoserine lactone], the “receptor tyrosine phosphorylation in response to EGF stimulation” value in test [1] (100 μM and even at lower concentrations (101M as printed)) was “potentiated receptor tyrosine phosphorylation in response to EGF stimulation several fold”. The “tyrosine phosphorylation of the EGF-R in unstimulated cells” value in test [1] (OdDHL alone at 100 μM) is “caused an increase in detectable tyrosine phosphorylation of the EGF-R”. Besides, the “JAK2 phosphorylation in serum-stimulated cells” value in test [2] was “does not interfere with JAK2 phosphorylation”. The “STAT3 phosphorylation induced by CM from serum-stimulated cells pre-treated with the compound” value in test [3] is “unable to stimulate STAT3 phosphorylation; also recorded: failed to induce STAT3 phosphorylation”. Moreover, in test [4], the effect on proliferation result is “unaffected”. Moreover, in test [5], the “p46/p54 JNK/SAPK phosphorylation” value was “modest but reproducible inhibition”. In addition, the “STAT3 phosphorylation in response to EGF” value in test [6] was “augmented”.
